In patent publication US10407422B2, “Triazolopyridine inhibitors of myeloperoxidase” (priority 2015, dated 2019) one finds IC50 data, which are given here for 30 compounds.

Molecules are shown by their SMILES.

T1 sequence (P05164 49-745): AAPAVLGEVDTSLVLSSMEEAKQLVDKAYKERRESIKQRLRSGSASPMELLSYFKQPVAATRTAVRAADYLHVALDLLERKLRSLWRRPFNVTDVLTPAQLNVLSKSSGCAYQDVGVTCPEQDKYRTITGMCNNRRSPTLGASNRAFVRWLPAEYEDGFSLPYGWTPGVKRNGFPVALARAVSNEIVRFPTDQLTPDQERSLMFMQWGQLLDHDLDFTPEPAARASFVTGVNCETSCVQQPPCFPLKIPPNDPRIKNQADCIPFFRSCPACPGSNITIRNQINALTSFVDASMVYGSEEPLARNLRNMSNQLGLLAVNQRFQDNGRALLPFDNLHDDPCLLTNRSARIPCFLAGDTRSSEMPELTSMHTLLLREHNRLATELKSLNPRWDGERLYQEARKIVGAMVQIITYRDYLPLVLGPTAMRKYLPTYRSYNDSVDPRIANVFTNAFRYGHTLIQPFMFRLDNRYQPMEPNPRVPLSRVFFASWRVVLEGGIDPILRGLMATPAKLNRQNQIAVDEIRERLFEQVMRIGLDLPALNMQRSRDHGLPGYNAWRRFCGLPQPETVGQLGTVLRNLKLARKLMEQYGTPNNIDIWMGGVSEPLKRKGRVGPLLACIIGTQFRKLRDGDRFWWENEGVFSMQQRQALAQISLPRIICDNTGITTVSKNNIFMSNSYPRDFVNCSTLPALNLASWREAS

One test addresses T1, myeloperoxidase (MPO) (Homo sapiens (Human), UniProt P05164). Put plainly: MPO peroxidation assay (Amplex Red assay). In kind it is biochemical. The conditions noted are these: potency range class. On the procedure:
MPO Peroxidation Assay (Amplex Red Assay) MPO peroxidation activity was measured in 100 mM KPi (pH 7.4) by utilizing the non-fluorescent reagent Amplex Red (Invitrogen Cat. #A12222) which can be oxidized to the highly fluorescent resorufin. Amplex Red is oxidized by the peroxidase action of MPO to resorufin. Reactions were carried out in 50 μL total volume by adding a 25 μL mixture of 200 pM myeloperoxidase and 40 nM H2O2(Sigma #349887) to 100 nL inhibitor in 100% DMSO in a 384 well Perkin Elmer Optiplate. Enzyme and compound were preincubated for ten minutes at room temperature. After the ten minute preincubation, 25 μL of an Amplex Red mixture containing 200 μM Amplex Red and 10 mM H2O2 was added to the plate. Kinetic determinations were carried out immediately on a Perkin Elmer Envision (15 minute kinetic read, Ex: 535 nm, Em: 590 nm). IC50 values were calculated by determining the slope of the linear portion of the kinetic trace (180-540 secs), and using that calculated slope to determine % inhibition occurring at each concentration of inhibitor using the following equation: [formula] where A=minimal Y value (activity level of inhibited sample), B=maximal Y value (activity level of uninhibited sample), C=Log IC50, D=Hill Slope, x=concentration of inhibitor. MPO Chlorination Assay (APF Assay)
`Nc1cc(Cc2cnn(Cc3cccc(C4CCNC4)c3)c2)c2nn[nH]c2n1` (stereo in doubt) [Example 191, 7-{[1-({3-[(3S)-Pyrrolidin-3-yl]phenyl}yl]methyl}-3H-[1,2,3]triazolo[4,5-b]pyridin-5-amine]: the half-maximal inhibitory concentration (IC50) lay within 1 to 100 nM. In the case of `Cc1c(Cc2cc(N)nc3[nH]nnc23)cnn1-c1ccc(F)cc1` [Example 2, 7-((1-(4-Fluorophenyl)-5-methyl-1H-pyrazol-4-yl)methyl)-3H-triazolo[4,5-b]pyridin-5-amine], the 50% inhibitory concentration (IC50) lay within 101 to 999 nM. `Nc1cc(Cc2cnn(-c3cccc(F)c3)c2)c2nn[nH]c2n1` [Example 3, 7-((1-(3-Fluorophenyl)-1H-pyrazol-4-yl)methyl)-3H-[1,2,3]triazolo[4,5-b]pyridin-5-amine] displayed an IC50 of 1 to 100 nM.

Consider `Nc1cc(Cc2cnn(-c3ccccc3F)c2)c2nn[nH]c2n1` [Example 4, 7-((1-(2-Fluorophenyl)-1H-pyrazol-4-yl)methyl)-3H-[1,2,3]triazolo[4,5-b]pyridin-5-amine], for which the 50% inhibitory concentration (IC50) fell in the range of 1 to 100 nM. Regarding `Nc1cc(Cc2cnn(-c3ccc(Br)cc3)c2)c2nn[nH]c2n1` [Example 8, 7-((1-(4-Bromophenyl)-1H-pyrazol-4-yl)methyl)-3H-[1,2,3]triazolo[4,5-b]pyridin-5-amine], the 50% inhibitory concentration (IC50) is 1 to 100 nM. The same measure, in the same setting: for `Nc1cc(Cc2cnn(-c3ccc4ccccc4c3)c2)c2nn[nH]c2n1` [Example 12, 7-((1-(Naphthalen-2-yl)-1H-pyrazol-4-yl)methyl)-3H-[1,2,3]triazolo[4,5-b]pyridin-5-amine] the value was 101 to 999 nM; for `Cc1ccc(-n2cc(Cc3cc(N)nc4[nH]nnc34)cn2)c2ccccc12` [Example 13, 7-((1-(4-Methylnaphthalen-1-yl)-1H-pyrazol-4-yl)methyl)-3H-[1,2,3]triazolo[4,5-b]pyridin-5-amine], 1 to 100 nM; for `Nc1cc(Cc2cnn(-c3cccc(C4CC4)c3)c2)c2nn[nH]c2n1` [Example 15, 7-((1-(3-Cyclopropylphenyl)-1H-pyrazol-4-yl)methyl)-3H-[1,2,3]triazolo[4,5-b]pyridin-5-amine], 1 to 100 nM. Same read-out and setting: next, `Nc1cc(Cc2cnn(-c3cccc4cccnc34)c2)c2nn[nH]c2n1` [Example 16, 7-((1-(Quinolin-8-yl)-1H-pyrazol-4-yl)methyl)-3H-[1,2,3]triazolo[4,5-b]pyridin-5-amine]: 101 to 999 nM; `Nc1cc(Cc2cnn(-c3ccc(F)cn3)c2)c2nn[nH]c2n1` [Example 17, 7-((1-(5-Fluoropyridin-2-yl)-1H-pyrazol-4-yl)methyl)-3H-[1,2,3]triazolo[4,5-b]pyridin-5-amine]: 1 to 100 nM.

In turn, `Nc1cc(Cc2cnn(-c3cncc4ccccc34)c2)c2nn[nH]c2n1` [Example 18, 7-((1-(Isoquinolin-4-yl)-1H-pyrazol-4-yl)methyl)-3H-[1,2,3]triazolo[4,5-b]pyridin-5-amine] yielded a 50% inhibitory concentration (IC50) of 1 to 100 nM. Still for that read-out and setting: next, `Nc1cc(Cc2cnn(-c3cncc(F)c3)c2)c2nn[nH]c2n1` [Example 22, 7-((1-(5-Fluoropyridin-3-yl)-1H-pyrazol-4-yl)methyl)-3H-[1,2,3]triazolo[4,5-b]pyridin-5-amine]: 101 to 999 nM; `COc1cccc(-n2cc(Cc3cc(N)nc4[nH]nnc34)cn2)c1` [Example 23, 7-((1-(3-Methoxyphenyl)-1H-pyrazol-4-yl)methyl)-3H-[1,2,3]triazolo[4,5-b]pyridin-5-amine]: 1 to 100 nM; `Cc1ccc(-n2cc(Cc3cc(N)nc4[nH]nnc34)cn2)cc1` [Example 26, 7-((1-(4-Methylphenyl)-1H-pyrazol-4-yl)methyl)-3H-[1,2,3]triazolo[4,5-b]pyridin-5-amine]: 101 to 999 nM. The same measure, in the same setting: next, `COc1ccc(-n2cc(Cc3cc(N)nc4[nH]nnc34)cn2)cc1` [Example 27, 7-((1-(4-Methoxyphenyl)-1H-pyrazol-4-yl)methyl)-3H-[1,2,3]triazolo[4,5-b]pyridin-5-amine]: 101 to 999 nM. Compound `COc1ccccc1-n1cc(Cc2cc(N)nc3[nH]nnc23)cn1` [Example 28, 7-((1-(2-Methoxyphenyl)-1H-pyrazol-4-yl)methyl)-3H-[1,2,3]triazolo[4,5-b]pyridin-5-amine] had an IC50 of 101 to 999 nM. The same measure, in the same setting: next, `Nc1cc(Cc2cnn(-c3cccc(Br)c3)c2)c2nn[nH]c2n1` [Example 29, 7-((1-(3-Bromophenyl)-1H-pyrazol-4-yl)methyl)-3H-[1,2,3]triazolo[4,5-b]pyridin-5-amine]: 1 to 100 nM; `Nc1cc(Cc2cnn(-c3cccnc3)c2)c2nn[nH]c2n1` [Example 30, 7-((1-(Pyridin-3-yl)-1H-pyrazol-4-yl)methyl)-3H-[1,2,3]triazolo[4,5-b]pyridin-5-amine]: 1 to 100 nM; `COc1cc(-n2cc(Cc3cc(N)nc4[nH]nnc34)cn2)ccn1` [Example 32, 7-((1-(2-Methoxypyridin-4-yl)-1H-pyrazol-4-yl)methyl)-3H-[1,2,3]triazolo[4,5-b]pyridin-5-amine]: 101 to 999 nM.

Consider `COc1ccc2cccc(-n3cc(Cc4cc(N)nc5[nH]nnc45)cn3)c2c1` [Example 35, 7-((1-(7-Methoxynaphthalen-1-yl)-1H-pyrazol-4-yl)methyl)-3H-[1,2,3]triazolo[4,5-b]pyridin-5-amine], for which the half-maximal inhibitory concentration (IC50) fell in the range of 1 to 100 nM. The same measure, in the same setting: next, `Nc1cc(Cc2cnn(-c3cccc(OCc4ccccc4)c3)c2)c2nn[nH]c2n1` [Example 37, 7-((1-(3-(Benzyloxy)phenyl)-1H-pyrazol-4-yl)methyl)-3H-[1,2,3]triazolo[4,5-b]pyridin-5-amine]: 1 to 100 nM. `Nc1cc(Cc2cnn(-c3ccc(=O)[nH]c3)c2)c2nn[nH]c2n1` [Example 38, 5-(4-((5-Amino-3H-[1,2,3]triazolo[4,5-b]pyridin-7-yl)methyl)-1H-pyrazol-1-yl)pyridin-2(1H)-one] gave a half-inhibitory concentration (IC50) of 101 to 999 nM. Turning to `Nc1cc(Cc2cnc(-c3ccc(F)cc3)s2)c2nn[nH]c2n1` [Example 47, 7-((2-(4-Fluorophenyl)thiazol-5-yl)methyl)-3H-[1,2,3]triazolo[4,5-b]pyridin-5-amine], the IC50 lay in the range of 101 to 999 nM.

Regarding `Nc1cc(Cc2ccc(-c3ccccc3)s2)c2nn[nH]c2n1` [Example 49, 7-((5-Phenylthiophen-2-yl)methyl)-3H-[1,2,3]triazolo[4,5-b]pyridin-5-amine], the half-maximal inhibitory concentration (IC50) lay within 1 to 100 nM. On the same count and under the same terms, next, `Cc1cc(Cc2cc(N)nc3[nH]nnc23)sc1C` [Example 50, 7-((4,5-Dimethylthiophen-2-yl)methyl)-3H-[1,2,3]triazolo[4,5-b]pyridin-5-amine]: 101 to 999 nM; `Nc1cc(Cc2ccc(-c3ccccn3)s2)c2nn[nH]c2n1` [Example 51, 7-((5-(Pyridin-2-yl)thiophen-2-yl)methyl)-3H-[1,2,3]triazolo[4,5-b]pyridin-5-amine]: 1 to 100 nM; `CS(=O)(=O)c1ccc(Cn2cc(Cc3cc(N)nc4[nH]nnc34)cn2)cc1` [Example 58, 7-((1-(4-(Methylsulfonyl)benzyl)-1H-pyrazol-4-yl)methyl)-3H-[1,2,3]triazolo[4,5-b]pyridin-5-amine]: 101 to 999 nM. The same measure, in the same setting: for `CC(c1ccccc1)n1cc(Cc2cc(N)nc3[nH]nnc23)cn1` (stereo not shown) [Example 63, 7-((1-(1-Phenylethyl)-1H-pyrazol-4-yl)methyl)-3H-[1,2,3]triazolo[4,5-b]pyridin-5-amine] the value was 1 to 100 nM; for `Nc1cc(Cc2ccc(C(F)(F)F)o2)c2nn[nH]c2n1` [Example 70, 7-{[5-(Trifluoromethyl)furan-2-yl]methyl}-3H-[1,2,3]triazolo[4,5-b]pyridin-5-amine], 1000 to 10000 nM; for `NC(=O)c1ccc(Cn2cc(Cc3cc(N)nc4[nH]nnc34)cn2)cc1` [Example 73, 4-((4-((5-Amino-3H-[1,2,3]triazolo[4,5-b]pyridin-7-yl)methyl)-1H-pyrazol-1-yl)methyl)benzamide], 1000 to 10000 nM.

The target in the next test is T1, myeloperoxidase (MPO). Put plainly: MPO chlorination assay (APF assay). The class given is biochemical. The settings on record: potency range class. The procedure: [formula] where A=minimal Y value (activity level of inhibited sample), B=maximal Y value (activity level of uninhibited sample), C=Log IC50, D=Hill Slope, x=concentration of inhibitor. MPO Chlorination Assay (APF Assay) MPO chlorination activity was measured in 100 mM KPi (pH 7.4) by utilizing the non-fluorescent reagent Aminophenyl fluorescein (APF, Invitrogen Cat. #A36003). APF is cleaved by (—OCl) to yield the fluorescent compound fluorescein. Reactions were carried out in 50 μL total volume by adding a 25 μL mixture of 200 pM myeloperoxidase and 120 mM NaCl to 100 nL inhibitor in 100% DMSO in a 384 well, non-binding surface clear bottom plate (Corning #3655). Enzyme, inhibitor, and chloride were preincubated for ten minutes at room temperature. After the ten minute preincubation, 25 μL of an APF mixture containing […], 120 mM NaCl and 10 μM H2O2 was added to the plate using the internal dispensing system of a Hammatsu FDSS 6000. Kinetic determinations were carried out immediately on the FDSS 6000 (3 minute kinetic read, 1 read every second, ex: 485 nm, em: 535 nm). IC50 values for inhibitors were calculated by taking the slope of the linear portion of the kinetic measurement (20 seconds to ˜80-120 secs). IC50 values were calculated by determining the slope of the linear portion of the kinetic trace […], and using that calculated slope to determine % inhibition occurring at each concentration of inhibitor using the following equation: [formula] where A=minimal Y value (activity level of inhibited sample), B=maximal Y value (activity level of uninhibited sample), C=Log IC50, D=Hill Slope, x=concentration of inhibitor. EPX Bromination Assay
Regarding `Nc1cc(Cc2cnn(Cc3cccc(C4CCNC4)c3)c2)c2nn[nH]c2n1` (stereo in doubt) [Example 191, 7-{[1-({3-[(3S)-Pyrrolidin-3-yl]phenyl}yl]methyl}-3H-[1,2,3]triazolo[4,5-b]pyridin-5-amine], the IC50 fell in the range of 1 to 100 nM. Same read-out and setting: for `Cc1c(Cc2cc(N)nc3[nH]nnc23)cnn1-c1ccc(F)cc1` [Example 2, 7-((1-(4-Fluorophenyl)-5-methyl-1H-pyrazol-4-yl)methyl)-3H-triazolo[4,5-b]pyridin-5-amine] the value was 101 to 999 nM; for `Nc1cc(Cc2cnn(-c3cccc(F)c3)c2)c2nn[nH]c2n1` [Example 3, 7-((1-(3-Fluorophenyl)-1H-pyrazol-4-yl)methyl)-3H-[1,2,3]triazolo[4,5-b]pyridin-5-amine], 101 to 999 nM; for `Nc1cc(Cc2cnn(-c3ccccc3F)c2)c2nn[nH]c2n1` [Example 4, 7-((1-(2-Fluorophenyl)-1H-pyrazol-4-yl)methyl)-3H-[1,2,3]triazolo[4,5-b]pyridin-5-amine], 1 to 100 nM.
